Measured values reported in the CheMixHub ionic liquid set.
± gives the uncertainty stated by the source.

Assay: xn = mol fraction of the nth substance listed
Settings: 101 kPa

CCCC[n+]1ccn(C)c1.N#C[S-] + CCCCCCO
Settings	viscosity [mPa·s]
298.15 K, x2 = 0.1505	36.2 ± 0.3
308.15 K, x2 = 0.1505	24.6 ± 0.2
308.15 K, x2 = 0.453	13.1 ± 0.1
308.15 K, x2 = 0.9102	4.42 ± 0.01
318.15 K, x2 = 0.6307	6.91 ± 0.03
318.15 K, x2 = 0.9102	3.41 ± 0.01
328.15 K, x2 = 0.6962	4.59 ± 0.02
328.15 K, x2 = 0.7583	3.92 ± 0.01
328.15 K, x2 = 0.8512	3.17 ± 0.01
338.15 K, x2 = 0.0424	12 ± 0.1
338.15 K, x2 = 0.3093	8.15 ± 0.06
338.15 K, x2 = 0.453	6.07 ± 0.04
338.15 K, x2 = 0.5773	4.76 ± 0.02
348.15 K, x2 = 0.0424	9.56 ± 0.09

CC(=O)[O-].[K+] + O + CCCC[n+]1ccn(C)c1.O=S(=O)([O-])C(F)(F)F
Settings	viscosity [mPa·s]
308.15 K, x1 = 0.01574, x2 = 0.9011	1.515 ± 0.014

CCCCc1n(S(=O)(=O)O)cc[n+]1S(=O)(=O)O.O=C([O-])C(F)(F)F + CC#N
Settings	electrical conductivity [S/m]
278.15 K, x1 = 0.02551	1.24 ± 0.025
283.15 K, x1 = 0.02551	1.19 ± 0.024
288.15 K, x1 = 0.02551	1.07 ± 0.021
293.15 K, x1 = 0.02551	0.944 ± 0.019
298.15 K, x1 = 0.0052	0.359 ± 0.007
298.15 K, x1 = 0.0104	0.425 ± 0.009
298.15 K, x1 = 0.0155	0.554 ± 0.011
298.15 K, x1 = 0.0205	0.632 ± 0.013
298.15 K, x1 = 0.0255	0.899 ± 0.018
298.15 K, x1 = 0.02551	0.899 ± 0.018
303.15 K, x1 = 0.02551	0.665 ± 0.013
308.15 K, x1 = 0.02551	0.646 ± 0.013
313.15 K, x1 = 0.02551	0.545 ± 0.011
318.15 K, x1 = 0.02551	0.521 ± 0.01
323.15 K, x1 = 0.02551	0.468 ± 0.009
328.15 K, x1 = 0.02551	0.457 ± 0.009
333.15 K, x1 = 0.02551	0.423 ± 0.008

Cn1cc[n+](CCC[n+]2ccn(C)c2)c1.[Br-].[Br-] + O
viscosity [mPa·s]
Settings	x1 = 0.0005912	x1 = 0.0006805	x1 = 0.0007474	x1 = 0.0009122	x1 = 0.00129	x1 = 0.00144	x1 = 0.001838	x1 = 0.002094	x1 = 0.002204	x1 = 0.002491
293.15 K	–	–	–	–	–	1.05	1.066	1.071	1.071	1.084
298.15 K	0.905	0.904	0.908	0.913	–	0.935	0.948	0.955	0.955	0.962
303.15 K	0.812	0.811	0.816	–	0.832	0.84	0.85	0.855	0.857	0.859
308.15 K	0.734	0.734	0.739	0.74	0.754	–	0.768	0.77	0.774	0.775
313.15 K	0.669	0.67	0.673	–	–	0.693	0.7	0.702	0.705	0.708
